Measurements as given in patent US12240844B2 (Voronoi, Inc., priority 2019, dated 2025).

Key:
human DYRK1A and Tau = assay: Tau phosphorylation inhibition, ClariCELL Kinase Cell-Based Assay (Carnabio)
Outline: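 HEK293 cells transiently expressing human DYRK1A and Tau were exposed to compound, then lysed. Released Tau was captured on plate and its phosphorylation quantified by ELISA with a phospho-Tau-specific antibody.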

human GST-CLK1 (129-end) = target: T1, human GST-CLK1 (129-end) (Homo sapiens, UniProt P49759); assay: GST-CLK1 enzyme inhibition, ADP-Glo kinase assay; format: biochemical; settings: ATP 10 uM
T1 construct: purified human GST-CLK1 (129-end, Signalchem) enzyme; GST; purchased Signalchem
T1 sequence (P49759 129-484 limits assumed): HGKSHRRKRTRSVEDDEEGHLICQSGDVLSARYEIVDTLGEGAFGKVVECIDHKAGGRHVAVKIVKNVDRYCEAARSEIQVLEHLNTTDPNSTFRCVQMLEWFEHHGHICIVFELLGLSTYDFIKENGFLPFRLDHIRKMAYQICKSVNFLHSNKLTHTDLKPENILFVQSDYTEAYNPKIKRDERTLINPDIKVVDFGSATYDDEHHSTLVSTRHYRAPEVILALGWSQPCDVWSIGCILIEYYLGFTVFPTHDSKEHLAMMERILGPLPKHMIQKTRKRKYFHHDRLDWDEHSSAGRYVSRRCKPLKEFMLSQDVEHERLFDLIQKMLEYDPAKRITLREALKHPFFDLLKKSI
Outline: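 GST-CLK1 (129-end, 3 ng) reacted with 10 uM ATP and substrate in 40 mM Tris-HCl pH 7.4, 20 mM MgCl2, 0.5 mg/mL BSA, 50 uM DTT, 1 h at 25° C. ADP-Glo luminescence normalised to solvent control; IC50 from triplicate data.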

TTK = target: T2, TTK (Homo sapiens, UniProt P33981); assay: TTK enzyme inhibition, ADP-Glo kinase assay; format: biochemical; set-up: purchased Signalchem T20-10G; settings: ATP 5 μM
T2 sequence (P33981 1-857): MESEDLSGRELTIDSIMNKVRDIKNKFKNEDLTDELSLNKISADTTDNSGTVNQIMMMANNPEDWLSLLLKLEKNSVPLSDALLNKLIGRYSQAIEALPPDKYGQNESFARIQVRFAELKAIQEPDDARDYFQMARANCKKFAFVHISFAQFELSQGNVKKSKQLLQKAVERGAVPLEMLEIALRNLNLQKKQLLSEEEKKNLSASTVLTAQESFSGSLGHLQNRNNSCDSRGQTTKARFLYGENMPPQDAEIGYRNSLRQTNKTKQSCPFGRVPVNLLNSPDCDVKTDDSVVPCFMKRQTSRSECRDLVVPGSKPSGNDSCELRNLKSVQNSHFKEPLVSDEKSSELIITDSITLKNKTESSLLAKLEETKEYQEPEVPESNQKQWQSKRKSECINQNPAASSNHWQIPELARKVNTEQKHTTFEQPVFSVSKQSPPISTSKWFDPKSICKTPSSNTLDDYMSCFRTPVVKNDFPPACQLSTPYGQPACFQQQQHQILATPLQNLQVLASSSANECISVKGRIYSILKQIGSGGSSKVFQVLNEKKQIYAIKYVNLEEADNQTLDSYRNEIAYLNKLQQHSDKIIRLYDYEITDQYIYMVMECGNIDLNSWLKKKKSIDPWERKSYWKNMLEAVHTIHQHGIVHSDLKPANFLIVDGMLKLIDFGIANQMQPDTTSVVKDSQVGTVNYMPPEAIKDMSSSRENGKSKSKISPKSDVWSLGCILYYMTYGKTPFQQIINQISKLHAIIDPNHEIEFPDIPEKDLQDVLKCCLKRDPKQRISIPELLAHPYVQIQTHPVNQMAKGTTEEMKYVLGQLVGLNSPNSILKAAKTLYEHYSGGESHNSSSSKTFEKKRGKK
Outline: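 Recombinant human TTK (7.5 ng) reacted with 5 μM ATP and MBP substrate (0.2 μg) for 4 h at 25° C in Tris-HCl pH 7.4, MgCl2, BSA, DTT buffer, compound at 0.000017–1 μM. ADP formation by ADP-Glo luminescence; IC50 (nM) relative to solvent control.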

Row | Structure (SMILES) | inhibition at 0.25 µM (human DYRK1A and Tau) [%] | inhibition at 0.5 µM (human DYRK1A and Tau) [%] | inhibition at 1 µM (human DYRK1A and Tau) [%] | IC50 (human GST-CLK1 (129-end)) [nM] | IC50 (TTK) [nM]
1 | COCCNc1cc(Nc2ccc(S(=O)(=O)N3CCC(N4CCOCC4)CC3)c3c2OCCO3)nc2[nH]cc(C(F)(F)F)c12 [Example 97, N^4-(2-methoxyethyl)-N^6-(8-((4-morpholonopiperidin-1-yl)sulfonyl)-2,3-dihydrobenzo[b] [1,4]dioxin-5-yl)-3-(trifluoromethyl)-1H-pyrrolo[2,3-b]pyridine-4,6-diamine] | 22.3 | 42 | 67.2 | < 100 | 101 to 300
2 | CNc1cc(Nc2ccc(S(=O)(=O)N3CCC(N4CCOCC4)CC3)c3c2OCCO3)nc2[nH]cc(C(F)(F)F)c12 [Example 233, N^4-methyl-N^6-(8-((4-morpholinopiperidin-1-yl)sulfonyl)-2,3-dihydrobenzo [b] [1,4]dioxin-5-yl)-3-(trifluoromethyl)-1H-pyrrolo[2,3-b]pyridine-4,6-diamine] | 17.7 | 34.6 | 70.3 | < 100 | 101 to 300
3 | O=C(c1ccc(Nc2cc(C3CC3)c3c(C(F)(F)F)c[nH]c3n2)c2c1CCO2)N1CCOCC1 [Example 91, (7-((4-cyclopropyl-3-(trifluoromethyl)-1H-pyrrolo[2,3-b]pyridin-6-yl)amino)-2,3-dihydrobenzofuran-4-yl)(morpholino) methanone] | 12.9 | 33.1 | 44.3 |  | 301 to 1000
4 | CCNc1cc(Nc2ccc(C(=O)N3CCC(N4CCOCC4)CC3)c3c2OCC3)nc2[nH]cc(C(F)(F)F)c12 [Example 90, (7-((4-(ethylamino)-3-(trifluoromethyl)-1H-pyrrolo[2,3-b]pyridin-6-yl)amino)-2,3-dihydrobenzofuran-4-yl)(4-morpholinopiperidin-1-yl)methanone] | 23.3 | 51.7 | 70.3 | < 100 | < 100
5 | CNc1cc(Nc2ccc(C(=O)N3CC[C@@H](N4CCOCC4)C3)c3c2OCC3)nc2[nH]cc(C(F)(F)F)c12 [Example 214, (R)-(7-((4-(methylamino)-3-(trifluoromethyl)-1H-pyrrolo[2,3-b]pyridin-6-yl)amino)-2,3-dihydrobenzofuran-4-yl)(3-morpholinopyrrolidin-1-yl)methanone] | 33.9 | 60.1 | 76.8 | < 100 | 101 to 300
6 | O=C(c1ccc(Nc2cc(C3CC3)c3c(C(F)(F)F)c[nH]c3n2)c2c1CCO2)N1CCC(N2CCOCC2)CC1 [Example 93, (7-((4-cyclopropyl-3-(trifluoromethyl)-1H-pyrrolo[2,3-b]pyridin-6-yl)amino)-2,3-dihydrobenzofuran-4-yl)(4-morpholinopiperidin-1-yl)mthanone] | 12 | 28.8 | 50.1 | < 100 | 301 to 1000
7 | CCNc1cc(Nc2ccc(C(=O)N3CCC(N4C[C@@H]5C[C@H]4CO5)CC3)c3c2OCC3)nc2[nH]cc(C(F)(F)F)c12 [Example 105, (4-((1S,4S)-2-oxa-5-azabicyclo[2.2.1]heptan-5-yl)piperidin-1-yl)(7-((4-(ethylamino)-3-(trifluoromethyl)-1H-pyrrolo[2,3-b]pyridin-6-yl)amino)-2,3-dihydrobenzofuran-4-yl)methanone] | 60.2 | 74 | 92 | < 100 | < 100
8 | CCNc1cc(Nc2ccc(C(=O)N3CCN(C4COC4)CC3)c3c2OCCO3)nc2[nH]cc(C(F)(F)F)c12 [Example 173, (8-((4-(ethylamino)-3-(trifluoromethyl)-1H-pyrrolo[2,3-b]pyridin-6-yl)amino)-2,3-dihydrobenzo[b] [1,4]dioxin-5-yl)(4-(oxetan-3-yl)piperazin-1-yl)methanone] | 5.2 | 28.2 | 46.4 | < 100 | < 100
9 | O=C(c1ccc(Nc2cc(C3CC3)c3c(C(F)(F)F)c[nH]c3n2)c2c1CCO2)N1CC[C@H](N2CCOCC2)C1 [Example 237, (S)-(7-((4-cyclopropyl-3-(trifluoromethyl)-1H-pyrrolo[2,3-b]pyridin-6-yl)amino)-2,3-dihydrobenzofuran-4-yl)(3-morpholinopyrrolidin-1-yl)methanone] | 7.7 | 20.5 | 34.5 |  | 101 to 300
10 | CNc1cc(Nc2ccc(C(=O)N3CCC(N4CCOCC4)CC3)c3c2OCC3)nc2[nH]cc(C(F)(F)F)c12 [Example 234, (7-((4-(methylamino)-3-(trifluoromethyl)-1H-pyrrolo[2,3-b]pyridin-6-yl)amino)-2,3-dihydrobenzofuran-4-yl)(4-morpholinopiperidin-1-yl)methanone] | 41.8 | 65.3 | 81.5 | < 100 | < 100
11 | O=C(c1ccc(Nc2cc(NC3CC3)c3c(C(F)(F)F)c[nH]c3n2)c2c1CCO2)N1CCC(N2CCOCC2)CC1 [Example 92, (7-((4-(cyclopropylamino)-3-(trifluoromethyl)-1H-pyrrolo[2,3-b]pyridin-6-yl)amino)-2,3-dihydrobenzofuran-4-yl)(4-morpholinopiperidin-1-yl)methanone] | 27.5 | 52.4 | 77.2 | < 100 | < 100
12 | CNc1cc(Nc2ccc(C(=O)N3CC[C@H](N4CCOCC4)C3)c3c2OCC3)nc2[nH]cc(C(F)(F)F)c12 [Example 217, (S)-(7-((4-(methylamino)-3-(trifluoromethyl)-1H-pyrrolo[2,3-b]pyridin-6-yl)amino)-2,3-dihydrobenzofuran-4-yl)(3-morpholinopyrrolidin-1-yl)methanone] | 50.2 | 60.6 | 84.5 | < 100 | < 100
13 | CCNc1cc(Nc2ccc(C(=O)N3CCN(C4COC4)CC3)c3c2OCC3)nc2[nH]cc(C(F)(F)F)c12 [Example 248, (7-((4-(ethylamino)-3-(trifluoromethyl)-1H-pyrrolo[2,3-b]pyridin-6-yl)amino)-2,3-dihydrobenzofuran-4-yl)(4-(oxetan-3-yl)piperazin-1-yl)methanone] | 53.5 | 76 | 95.1 | < 100 | < 100
14 | CCNc1cc(Nc2ccc(C(=O)N3CCC(N4C[C@H]5C[C@@H]4CO5)CC3)c3c2OCC3)nc2[nH]cc(C(F)(F)F)c12 [Example 244, (4-((1R,4R)-2-oxa-5-azabicyclo[2.2.1]heptan-5-yl)piperidin-1-yl)(7-((4-(ethylamino)-3-(trifluoromethyl)-1H-pyrrolo[2,3-b]pyridin-6-yl)amino)-2,3-dihydrobenzofuran-4-yl)methanone] | 58 | 86 | 107 | < 100 | < 100
15 | CNc1cc(Nc2ccc(S(=O)(=O)N3CCC(N4CCOCC4)CC3)cc2OC)nc2[nH]cc(C(F)(F)F)c12 [Example 184, N^6-(2-methoxy-4-((4-morpholinopiperidin-1-yl)sulfonyl)phenyl)-N^4-methyl-3-(trifluoromethyl)-1H-pyrrolo[2,3-b]pyridine-4,6-diamine] | 28.5 | 58.2 | 76.1 |  | < 100
16 | O=C(c1ccc(Nc2cc(C3CC3)c3c(C(F)(F)F)c[nH]c3n2)c2c1OCCO2)N1CCC(N2CCOCC2)CC1 [Example 221, (8-((4-cyclopropyl-3-(trifluoromethyl)-1H-pyrrolo[2,3-b]pyridin-6-yl)amino)-2,3-dihydrobenzo [b] [1,4]dioxin-5-yl)(4-morpholinopiperidin-1-yl)methanone] | 6.2 | 24.7 | 23 | < 100 | < 100
